Laboratory results published in patent US20230284620A1, “MIXTURES OF PYRIDAZINES AS HERBICIDAL COMPOSITIONS” (SYNGENTA CROP PROTECTION AG, priority 2020, published 2023).
Several values for one entry are separate records, joined by “and”; a condition that tells them apart may be missing. Equal entries are not always repeated.

Legend:
Experiment in all cases: Post-emergence glasshouse herbicide test, visual phytotoxicity
Type in all cases: in vivo
Settings in all cases: 13 days
[1] = tested on: Digitaria sanguinalis (DIGSA)
Protocol: (§1) Seeds of Setaria faberi (SETFA), Echinochloa crus-galli (ECHCG), Digitaria sanguinalis (DIGSA), Lolium perenne (LOLPE), Alopecurus myosuroides (ALOMY), Chenopodium album (CHEAL), Ipomoea hederacea (IPOHE), Stellaria media (STEME), Abutilon threophrasti (ABUTH) and Amaranthus retroflexus (AMARE) were sown in standard sterilised soil in pots. After cultivation for 8 days under controlled conditions in a glasshouse (at 24/19° C., day/night; 16 hours light; no humidity control), the plants were sprayed at 500 l/Ha with an aqueous spray solution derived from the formulation of the technical active ingredients in a small amount of acetone and a solvent and emulsifier mixture referred to as IF50 (11.12% Emulsogen EL360 TM+44.44% N-methylpyrrolidone+44.44% Dowanol DPM glycol ether), to create a 50 g/l solution which was then diluted using 0.2% Genapol X080 (CAS Number: 9043-30-5) as diluent to give the desired final dose of test compound.
(§2) Where active ingredients were applied as mixtures, aqueous spray solutions were prepared as above, containing both active ingredients.
(§3) The test plants were then grown under controlled conditions in a glasshouse (at 24/18° C., day/night; 15 hours light; 50% humidity) and watered twice daily. After 13 days, the test was evaluated visually for percentage phytotoxicity to the plants (where 100=total damage to plant; 0=no damage to plant; and NC=not captured) when compared to control untreated plants. Two to four replicates were applied for each treatment in a randomised block test design.
(§4) 22., E=X+Y−(X*Y/100), where • X=average percent phytotoxicity of herbicide A when applied at a certain rate • Y=average percent phytotoxicity using herbicide B when applied at a certain rate • E=the expected effect of the mixture of herbicides A and B as calculated from the Colby formula.

[2] = tested on: Ipomoea hederacea (IPOHE)
Protocol: as §1, §2, §3, §4

Lolium perenne (LOLPE) = tested on: Lolium perenne (LOLPE)
Protocol: as §1, §2, §3, §4

[3] = tested on: Alopecurus myosuroides (ALOMY)
Protocol: as §1, §2, §3, §4

[4] = tested on: Chenopodium album (CHEAL)
Protocol: as §1, §2, §3, §4

Setaria faberi (SETFA) = tested on: Setaria faberi (SETFA)
Protocol: as §1, §2, §3, §4

[5] = tested on: Amaranthus retroflexus (AMARE)
Protocol: as §1, §2, §3, §4

Stellaria media (STEME) = tested on: Stellaria media (STEME)
Protocol: as §1, §2, §3, §4

[6] = tested on: Abutilon threophrasti (ABUTH)
Protocol: as §1, §2, §3, §4

[7] = tested on: Echinochloa crus-galli (ECHCG)
Protocol: as §1, §2, §3, §4

## Nc1c(F)c(-c2ccc3cc[nH]c3c2F)nc(C(=O)O)c1Cl [B-VI]
[1]; 0.625 g/ha
  percentage phytotoxicity DIGSA: 0%
[1]; 1.25 g/ha
  percentage phytotoxicity DIGSA: 0%
[1]; 2.5 g/ha
  percentage phytotoxicity DIGSA: 13%
[1]; 5 g/ha
  percentage phytotoxicity DIGSA: 15%
[1]; 10 g/ha
  percentage phytotoxicity DIGSA: 43%
[2]; 0.625 g/ha
  percentage phytotoxicity IPOHE: 25%
[2]; 1.25 g/ha
  percentage phytotoxicity IPOHE: 35%
[2]; 2.5 g/ha
  percentage phytotoxicity IPOHE: 38%
[2]; 5 g/ha
  percentage phytotoxicity IPOHE: 48%
[2]; 10 g/ha
  percentage phytotoxicity IPOHE: 65%
Lolium perenne (LOLPE); 0.625 g/ha
  percentage phytotoxicity LOLPE: 0%
Lolium perenne (LOLPE); 1.25 g/ha
  percentage phytotoxicity LOLPE: 0%
Lolium perenne (LOLPE); 2.5 g/ha
  percentage phytotoxicity LOLPE: 5%
Lolium perenne (LOLPE); 5 g/ha
  percentage phytotoxicity LOLPE: 5%
Lolium perenne (LOLPE); 10 g/ha
  percentage phytotoxicity LOLPE: 25%
[3]; 0.625 g/ha
  percentage phytotoxicity ALOMY: 0%
[3]; 1.25 g/ha
  percentage phytotoxicity ALOMY: 0%
[3]; 2.5 g/ha
  percentage phytotoxicity ALOMY: 10%
[3]; 5 g/ha
  percentage phytotoxicity ALOMY: 8%
[3]; 10 g/ha
  percentage phytotoxicity ALOMY: 25%
[4]; 0.625 g/ha
  percentage phytotoxicity CHEAL: 75%
[4]; 1.25 g/ha
  percentage phytotoxicity CHEAL: 80%
[4]; 2.5 g/ha
  percentage phytotoxicity CHEAL: 83%
[4]; 5 g/ha
  percentage phytotoxicity CHEAL: 94%
[4]; 10 g/ha
  percentage phytotoxicity CHEAL: 98%
Setaria faberi (SETFA); 0.625 g/ha
  percentage phytotoxicity SETFA: 0%
Setaria faberi (SETFA); 1.25 g/ha
  percentage phytotoxicity SETFA: 0%
Setaria faberi (SETFA); 2.5 g/ha
  percentage phytotoxicity SETFA: 5%
Setaria faberi (SETFA); 5 g/ha
  percentage phytotoxicity SETFA: 2%
Setaria faberi (SETFA); 10 g/ha
  percentage phytotoxicity SETFA: 40%
[5]; 0.625 g/ha
  percentage phytotoxicity AMARE: 83%
[5]; 1.25 g/ha
  percentage phytotoxicity AMARE: 83%
[5]; 2.5 g/ha
  percentage phytotoxicity AMARE: 90%
[5]; 5 g/ha
  percentage phytotoxicity AMARE: 98%
[5]; 10 g/ha
  percentage phytotoxicity AMARE: 100%
Stellaria media (STEME); 0.625 g/ha
  percentage phytotoxicity STEME: 65%
Stellaria media (STEME); 1.25 g/ha
  percentage phytotoxicity STEME: 75%
Stellaria media (STEME); 2.5 g/ha
  percentage phytotoxicity STEME: 90%
Stellaria media (STEME); 5 g/ha
  percentage phytotoxicity STEME: 93%
Stellaria media (STEME); 10 g/ha
  percentage phytotoxicity STEME: 99%
[6]; 0.625 g/ha
  percentage phytotoxicity ABUTH: 48%
[6]; 1.25 g/ha
  percentage phytotoxicity ABUTH: 70%
[6]; 2.5 g/ha
  percentage phytotoxicity ABUTH: 78%
[6]; 5 g/ha
  percentage phytotoxicity ABUTH: 80%
[6]; 10 g/ha
  percentage phytotoxicity ABUTH: 93%
[7]; 0.625 g/ha
  percentage phytotoxicity ECHCG: 0%
[7]; 1.25 g/ha
  percentage phytotoxicity ECHCG: 0%
[7]; 2.5 g/ha
  percentage phytotoxicity ECHCG: 25%
[7]; 5 g/ha
  percentage phytotoxicity ECHCG: 10%
[7]; 10 g/ha
  percentage phytotoxicity ECHCG: 53%

## COc1c(Cl)ccc(-c2nc(C(=O)OCc3ccccc3)c(Cl)c(N)c2F)c1F [B-I]
[1]; 0.625 g/ha
  percentage phytotoxicity DIGSA: 0%
[1]; 1.25 g/ha
  percentage phytotoxicity DIGSA: 8%
[1]; 2.5 g/ha
  percentage phytotoxicity DIGSA: 0%
[1]; 5 g/ha
  percentage phytotoxicity DIGSA: 0%
[1]; 10 g/ha
  percentage phytotoxicity DIGSA: 0%
[2]; 0.625 g/ha
  percentage phytotoxicity IPOHE: 53%
[2]; 1.25 g/ha
  percentage phytotoxicity IPOHE: 58%
[2]; 2.5 g/ha
  percentage phytotoxicity IPOHE: 58%
[2]; 5 g/ha
  percentage phytotoxicity IPOHE: 63%
[2]; 10 g/ha
  percentage phytotoxicity IPOHE: 75%
Lolium perenne (LOLPE); 0.625 g/ha
  percentage phytotoxicity LOLPE: 0%
Lolium perenne (LOLPE); 1.25 g/ha
  percentage phytotoxicity LOLPE: 10%
Lolium perenne (LOLPE); 2.5 g/ha
  percentage phytotoxicity LOLPE: 0%
Lolium perenne (LOLPE); 5 g/ha
  percentage phytotoxicity LOLPE: 0%
Lolium perenne (LOLPE); 10 g/ha
  percentage phytotoxicity LOLPE: 0%
[3]; 0.625 g/ha
  percentage phytotoxicity ALOMY: 0%
[3]; 1.25 g/ha
  percentage phytotoxicity ALOMY: 0%
[3]; 2.5 g/ha
  percentage phytotoxicity ALOMY: 0%
[3]; 5 g/ha
  percentage phytotoxicity ALOMY: 0%
[3]; 10 g/ha
  percentage phytotoxicity ALOMY: 5%
[4]; 0.625 g/ha
  percentage phytotoxicity CHEAL: 85%
[4]; 1.25 g/ha
  percentage phytotoxicity CHEAL: 73%
[4]; 2.5 g/ha
  percentage phytotoxicity CHEAL: 83%
[4]; 5 g/ha
  percentage phytotoxicity CHEAL: 91%
[4]; 10 g/ha
  percentage phytotoxicity CHEAL: 93%
Setaria faberi (SETFA); 0.625 g/ha
  percentage phytotoxicity SETFA: 0%
Setaria faberi (SETFA); 1.25 g/ha
  percentage phytotoxicity SETFA: 5%
Setaria faberi (SETFA); 2.5 g/ha
  percentage phytotoxicity SETFA: 0%
Setaria faberi (SETFA); 5 g/ha
  percentage phytotoxicity SETFA: 0%
Setaria faberi (SETFA); 10 g/ha
  percentage phytotoxicity SETFA: 5%
[5]; 0.625 g/ha
  percentage phytotoxicity AMARE: 63%
[5]; 1.25 g/ha
  percentage phytotoxicity AMARE: 70%
[5]; 2.5 g/ha
  percentage phytotoxicity AMARE: 80%
[5]; 5 g/ha
  percentage phytotoxicity AMARE: 80%
[5]; 10 g/ha
  percentage phytotoxicity AMARE: 93%
Stellaria media (STEME); 0.625 g/ha
  percentage phytotoxicity STEME: 63%
Stellaria media (STEME); 1.25 g/ha
  percentage phytotoxicity STEME: 65%
Stellaria media (STEME); 2.5 g/ha
  percentage phytotoxicity STEME: 80%
Stellaria media (STEME); 5 g/ha
  percentage phytotoxicity STEME: 85%
Stellaria media (STEME); 10 g/ha
  percentage phytotoxicity STEME: 90%
[6]; 0.625 g/ha
  percentage phytotoxicity ABUTH: 78%
[6]; 1.25 g/ha
  percentage phytotoxicity ABUTH: 80%
[6]; 2.5 g/ha
  percentage phytotoxicity ABUTH: 83%
[6]; 5 g/ha
  percentage phytotoxicity ABUTH: 90%
[6]; 10 g/ha
  percentage phytotoxicity ABUTH: 85%
[7]; 0.625 g/ha
  percentage phytotoxicity ECHCG: 0%
[7]; 1.25 g/ha
  percentage phytotoxicity ECHCG: 8%
[7]; 2.5 g/ha
  percentage phytotoxicity ECHCG: 0%
[7]; 5 g/ha
  percentage phytotoxicity ECHCG: 0%
[7]; 10 g/ha
  percentage phytotoxicity ECHCG: 10%

## Cc1ccc2ccc(C)c(C3C(=O)C(Cl)=NN(C)C3=O)c2c1 (centres unmarked) [A-I]
[1]; 0.625 g/ha
  percentage phytotoxicity DIGSA: 0% and 1%
[1]; 1.25 g/ha
  percentage phytotoxicity DIGSA: 0%
[1]; 2.5 g/ha
  percentage phytotoxicity DIGSA: 3% and 0%
[1]; 5 g/ha
  percentage phytotoxicity DIGSA: 22% and 21%
[2]; 0.625 g/ha
  percentage phytotoxicity IPOHE: 13%
[2]; 2.5 g/ha
  percentage phytotoxicity IPOHE: 53% and 48%
[2]; 5 g/ha
  percentage phytotoxicity IPOHE: 63%
[2]; 10 g/ha
  percentage phytotoxicity IPOHE: 74%
Lolium perenne (LOLPE); 0.625 g/ha
  percentage phytotoxicity LOLPE: 0% and 3%
Lolium perenne (LOLPE); 1.25 g/ha
  percentage phytotoxicity LOLPE: 0% and 3%
Lolium perenne (LOLPE); 2.5 g/ha
  percentage phytotoxicity LOLPE: 3% and 1%
Lolium perenne (LOLPE); 10 g/ha
  percentage phytotoxicity LOLPE: 43% and 35%
[3]; 0.625 g/ha
  percentage phytotoxicity ALOMY: 0%
[3]; 1.25 g/ha
  percentage phytotoxicity ALOMY: 0%
[3]; 2.5 g/ha
  percentage phytotoxicity ALOMY: 0%
[3]; 5 g/ha
  percentage phytotoxicity ALOMY: 9% and 0%
[3]; 10 g/ha
  percentage phytotoxicity ALOMY: 21%
[4]; 0.625 g/ha
  percentage phytotoxicity CHEAL: 6%
[4]; 2.5 g/ha
  percentage phytotoxicity CHEAL: 13% and 16%
[4]; 5 g/ha
  percentage phytotoxicity CHEAL: 28% and 26%
Setaria faberi (SETFA); 0.625 g/ha
  percentage phytotoxicity SETFA: 0%
Setaria faberi (SETFA); 1.25 g/ha
  percentage phytotoxicity SETFA: 0%
Setaria faberi (SETFA); 5 g/ha
  percentage phytotoxicity SETFA: 43%
Setaria faberi (SETFA); 10 g/ha
  percentage phytotoxicity SETFA: 72%
[5]; 0.625 g/ha
  percentage phytotoxicity AMARE: 14%
[5]; 1.25 g/ha
  percentage phytotoxicity AMARE: 44%
[5]; 2.5 g/ha
  percentage phytotoxicity AMARE: 70%
[5]; 5 g/ha
  percentage phytotoxicity AMARE: 74%
[5]; 10 g/ha
  percentage phytotoxicity AMARE: 73%
Stellaria media (STEME); 0.625 g/ha
  percentage phytotoxicity STEME: 34%
Stellaria media (STEME); 1.25 g/ha
  percentage phytotoxicity STEME: 64% and 58%
Stellaria media (STEME); 2.5 g/ha
  percentage phytotoxicity STEME: 66%
Stellaria media (STEME); 5 g/ha
  percentage phytotoxicity STEME: 79%
Stellaria media (STEME); 10 g/ha
  percentage phytotoxicity STEME: 84%
[6]; 0.625 g/ha
  percentage phytotoxicity ABUTH: 6%
[6]; 2.5 g/ha
  percentage phytotoxicity ABUTH: 21%
[6]; 5 g/ha
  percentage phytotoxicity ABUTH: 58% and 55%
[6]; 10 g/ha
  percentage phytotoxicity ABUTH: 60%
[7]; 0.625 g/ha
  percentage phytotoxicity ECHCG: 0%
[7]; 1.25 g/ha
  percentage phytotoxicity ECHCG: 0%
[7]; 2.5 g/ha
  percentage phytotoxicity ECHCG: 8%
[7]; 5 g/ha
  percentage phytotoxicity ECHCG: 39%
[7]; 10 g/ha
  percentage phytotoxicity ECHCG: 64%
